These results are taken from patent publication US7294501B2, “Geldanamycin-producing strains, uses thereof and methods of producing same” (priority 2003, dated 2007).

The experiment deals with acidiscabies and caviscabies. Nature of the experiment: Geldanamycin activity against other common scab causing species. Type of experiment: cell-based. Conditions: data not shown.

Consider `COC1=C2C[C@@H](C)C[C@H](OC)[C@H](O)[C@@H](C)/C=C(\C)[C@H](OC(N)=O)[C@@H](OC)/C=C\C=C(/C)C(=O)NC(=CC1=O)C2=O` [Geldanamycin], for which the “activity against other common scab causing bacterial species” value was “active”.
